Structures are written as SMILES. Values joined by “and” are separate entries in the source; they are usually repeats but may differ in a detail not shown here. Equal entries are not always repeated.

The results in this text go back to publication PMC11237035, “Glutathione determines chronic myeloid leukemia vulnerability to an inhibitor of CMPK and TMPK” (Communications Biology, 2024).

Data set [1] relates to untransformed 32D cells. In words: CCK-8 cell viability assay, untransformed 32D cells. The data set is classed as cell-based, mouse. To be noted: for viability (0 = 100): Untransformed; for sensitivity compared among WT-, T315I-Bcr-Abl-32D and untransformed 32D progenitor cells: viability assays. As to the method:
After 72 h, viability assays were performed.
3 independent experiments. Asterisks denote ***p<0.001 from non-paired two-tailed

Data set [2] relates to WT-Bcr-Abl-32D cells. In words: CCK-8 cell viability assay, WT-Bcr-Abl-32D cells. It is filed as cell-based, mouse. To be noted: WT-Bcr-Abl, single replicates. Background: Tetrazolium dyes change colour on reduction, which living cells bring about.
The subject of data set [3] is T315I-Bcr-Abl-32D cells. Kind of data set: CCK-8 cell viability assay, T315I-Bcr-Abl-32D cells. It is filed as cell-based, mouse.
In data set [4] the test system is T315I-Bcr-Abl-32D cells. In words: GSH/GSSG-Glo measurement, T315I-Bcr-Abl-32D cells. It is filed as cell-based, mouse. The source says: (§1) The GSH/GSSG-Glo™ Assay Kit (Promega, V6611) was used for luminescent-based measurement of cellular GSH and GSSG by Tecan Spark 10 microplate reader.
For data set [5], the system named is T315I-Bcr-Abl-32D cells. In words: DNA fiber assay (replication speed), T315I-Bcr-Abl-32D cells. It is filed as cell-based, mouse. To be noted: T315I-Bcr-Abl-32D cells, BSO 12.5 μM, 16 h. On the procedure:
(§2) The workflow of DNA fiber labeling (Right). The representative labeled fibers are shown below. Replication speed in kb/min was calculated by the measured length of IdU (green) linking to CldU (red) in μm with a conversion factor of 0.34 μm/kb divided by the duration of the labeling pulse (Scale bar = 10 μm). The gray triangle indicates the boundary between red fluorescence and green fluorescence. c The measurement of intracellular ROS by the fluorescence intensity of CellROX Green staining using flow cytometric analysis. Data are presented as mean intensity relative to untransformed 32D cells. d, e The measurement of GSSG and GSH. […] Schematic illustration of the metabolic path U-^13C glutamine incorporation into the GSH (left). Gray and white circles indicate ^13C-label, and unlabeled ^12C, respectively. The traced isotopologue abundance of GSH is shown (right).
(§3) The DNA fiber assay was performed as described previously. Briefly, cells were sequentially treated with the medium containing 25 μM of CldU (Sigma-Aldrich, C6891) and then 250 μM of IdU (Sigma-Aldrich, I7125) for 20 min. After washing, cells were suspended in PBS (1000 cells/ μL). 2 μL of cell suspension was spotted on slides. […] The lengths of red- and green-labeled fibers were determined by FluoView3.0 software (Olympus).

For a further data set, the target named is T1, hTMPK (Homo sapiens, UniProt P23919).
T1 sequence (P23919 1-212): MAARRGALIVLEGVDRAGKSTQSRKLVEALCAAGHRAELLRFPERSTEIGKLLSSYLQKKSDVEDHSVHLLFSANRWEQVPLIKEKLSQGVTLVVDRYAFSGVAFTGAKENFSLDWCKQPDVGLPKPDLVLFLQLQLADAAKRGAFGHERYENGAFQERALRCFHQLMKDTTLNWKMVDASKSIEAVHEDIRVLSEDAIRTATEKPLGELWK
In words: biochemical.

In data set [6] the test system is untransformed 32D cells. In words: Western blot of tyrosine phosphorylation, untransformed 32D cells. The data set is classed as cell-based, mouse. To be noted: 32D progenitor cells, 2 μM, 4 h, pY99 Western blot. Background: In western blotting, separated proteins are transferred to a membrane and probed.
In data set [7] the test system is WT-Bcr-Abl-32D cells. In words: Western blot of tyrosine phosphorylation and Bcr-Abl downstream signaling, WT-Bcr-Abl-32D cells. The data set is classed as cell-based, mouse. The source says: (§4) Supplementary Figure 1. Bcr-Abl-activated downstream signaling in WT- and
(§5) The comparison of Bcr-Abl downstream signaling (Akt, mTorC1, and Stat5) in WT- […]

Data set [8] concerns T315I-Bcr-Abl-32D cells. Kind of data set: Western blot of tyrosine phosphorylation and Bcr-Abl downstream signaling, T315I-Bcr-Abl-32D cells. It is filed as cell-based, mouse.
Source text: as §4, §5

Data set [9] relates to WT-Bcr-Abl-32D cells. Kind of data set: GSH/GSSG-Glo measurement, WT-Bcr-Abl-32D cells. The data set is classed as cell-based, mouse.
Source text: as §1

The test system of data set [10] is WT-Bcr-Abl-32D cells. Kind of data set: DNA fiber assay (replication speed), WT-Bcr-Abl-32D cells. The data set is classed as cell-based, mouse. Particulars: NAC 1 mM, 16 h. As to the method: as §2, §3
A further data set addresses T2, hCMPK (Homo sapiens, UniProt P30085).
T2 sequence (P30085 1-196): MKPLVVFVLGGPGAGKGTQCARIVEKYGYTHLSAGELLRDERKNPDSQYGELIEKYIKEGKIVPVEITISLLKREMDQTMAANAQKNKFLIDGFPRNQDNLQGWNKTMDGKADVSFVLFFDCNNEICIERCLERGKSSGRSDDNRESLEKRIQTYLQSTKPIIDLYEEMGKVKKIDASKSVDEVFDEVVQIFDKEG
Kind of data set: biochemical.

Method for hCMPK: (§6) Activity assay was measured using the spectrophotometric method by coupling ADP formation to NADH oxidation catalyzed by pyruvate kinase and lactate dehydrogenase as described previously[20]. Each reaction contained 0.4 μg TMPK or 0.3 μg CMPK was incubated at 25 °C followed by using Tecan Spark 10 microplate reader to detect the change in NADH measurement at 340 nm absorption according to the manufacturer’s instructions.
Method for hTMPK: as §6

In general, viability refers to the share of living cells, or the viability signal relative to a control. For the compound `O=c1[nH]cc(F)c(=O)[nH]1` [Compound 5-FU, 5-Fluorouracil], the “viability (0 = 100)” value in the data set on untransformed 32D cells [1] (5-FU 50 nM, single replicates) is 73.4167 and 117.13 and 106.182 and 85.6469; with untransformed 32D cells [1] (5-FU 100 nM, single replicates), 72.9576 and 93.7766 and 105.148 and 51.3899; in the data set with untransformed 32D cells [1] (5-FU 200 nM, single replicates), 35.4417 and 92.003 and 84.6699 and 48.1556; in the data set with untransformed 32D cells [1] (5-FU 400 nM, single replicates), 6.096 and 36.2787 and 21.177 and 24.9913; with WT-Bcr-Abl-32D cells [2] (5-FU 50 nM) it was 107.177 and 94.9972 and 84.194 and 79.9956; in the data set with WT-Bcr-Abl-32D cells [2] (5-FU 100 nM), 65.5177 and 99.8323 and 74.733 and 69.6887. The “viability (0 = 100)” value in the data set with WT-Bcr-Abl-32D cells [2] (5-FU 200 nM) was 39.9892 and 67.384 and 54.7054 and 48.7266; in the data set on WT-Bcr-Abl-32D cells [2] (5-FU 400 nM), 24.7745 and 56.1347 and 30.6822 and 26.6217; in the data set with T315I-Bcr-Abl-32D cells [3] (T315I-Bcr-Abl, 5-FU 50 nM, single replicates), 83.5736 and 80.5085 and 76.4058; in the data set on T315I-Bcr-Abl-32D cells [3] (T315I-Bcr-Abl, 5-FU 100 nM, single replicates) it was 62.3323 and 96.9038 and 91.1488 and 80.2051; in the data set with T315I-Bcr-Abl-32D cells [3] (T315I-Bcr-Abl, 5-FU 200 nM, single replicates) it was 35.7891 and 57.1142 and 42.6177 and 58.9854; with T315I-Bcr-Abl-32D cells [3] (T315I-Bcr-Abl, 5-FU 400 nM, single replicates) it was 14.7128 and 7.825 and 11.0955. Further, the “sensitivity compared among WT-, T315I-Bcr-Abl-32D and untransformed 32D progenitor cells” value with untransformed 32D cells [1] is on record as “similar”. Besides, the viability at 0.05 µM with T315I-Bcr-Abl-32D cells [3] (Mus musculus, T315I-Bcr-Abl, 5-FU 50 nM, single replicates, read-out: viability (0 = 100)) was 84.6%. Further, the viability at 0.4 µM in the data set on T315I-Bcr-Abl-32D cells [3] (Mus musculus, T315I-Bcr-Abl, 5-FU 400 nM, single replicates, read-out: viability (0 = 100)) amounted to 15%.

As to `CCCCS(=N)(=O)CCC(N)C(=O)O` (stereo not shown) [BSO, buthionine sulphoximine], the “viability (vehicle, 0 = 100)” value in the data set with untransformed 32D cells [1] (32D cells, BSO 12.5 μM alone (JMF4073 0), single replicates) was 83.2384 and 115 and 94.5481. In addition, the “cell viability (% of NT, 0 JMF4073), Figure 5e” value in the data set with T315I-Bcr-Abl-32D cells [3] (T315I, BSO alone (JMF4073 0), single replicates) was 99.4456 and 92 and 86.6884. In the data set with T315I-Bcr-Abl-32D cells [3] (T315I-Bcr-Abl cells, BSO treatment alone), the “growth of cells, BSO alone” value is “did not suppress the growth”. Besides, the GSH% with T315I-Bcr-Abl-32D cells [4] (Figure 5c, T315I-Bcr-Abl, BSO vs NT = 100, single replicates) is 10.69% and 9.7% and 22.3%. In addition, the “cellular level of GSH” value in the data set on T315I-Bcr-Abl-32D cells [4] (T315I-Bcr-Abl-32D cells, BSO 12.5 μM, 16 h) is reported as “reduced”. In addition, the “lengths of replication tracks” value with T315I-Bcr-Abl-32D cells [5] was “reduced”.

By IC50 is commonly meant the concentration at which inhibition is half-maximal. High values mean weaker potency, low ones greater potency. Take `CC(C)(C)OC(=O)N1CCN(C(=O)Cn2sc3ccccc3c2=O)CC1` [JMF2977]: the midpoint of inhibition at hTMPK, the IC50, lay at 290 nM.

As to `Cc1ccc(C(=O)Nc2ccc(CN3CCN(C)CC3)c(C(F)(F)F)c2)cc1C#Cc1cnc2cccnn12` [ponatinib], the “basal level of tyrosine phosphorylation” value in the data set on untransformed 32D cells [6] was “also reduced”. In the data set on WT-Bcr-Abl-32D cells [7], the “Bcr-Abl downstream signals (pAkt-S473, pS6K-T389, pStat5-Y694)” value is “abolished these signals” and the “level of overall tyrosine phosphorylation” value is reported as “reduced”. For the same compound, in the data set on T315I-Bcr-Abl-32D cells [8], the “Bcr-Abl downstream signals (pAkt-S473, pS6K-T389, pStat5-Y694)” value is recorded as “abolished these signals” and the “level of overall tyrosine phosphorylation” value is “reduced”.

For `CC(=O)N[C@@H](CS)C(=O)O` [NAC, N-Acetyl-Cysteine], in the data set with WT-Bcr-Abl-32D cells [2] (NAC with vehicle), the “cell viability (% of NT vehicle), Figure 5h” value was 96.5592 and 69.512 and 104.601. In addition, in the data set with WT-Bcr-Abl-32D cells [9] (Figure 5f, WT-Bcr-Abl, NAC vs NT = 100, single replicates), the GSH% was 161.382% and 219.818% and 187.248% and 315.164%. The “cellular GSH level” value in the data set on WT-Bcr-Abl-32D cells [9] (WT-Bcr-Abl-32D cells, NAC 1 mM, 16 h) was “increased the cellular GSH level”. Besides, the “lengths of replication tracks” value with WT-Bcr-Abl-32D cells [10] is on record as “increased lengths of replication tracks”.

For `CCOC(=O)N1CCN(C(=O)Cn2sc3nc(C)cc(C)c3c2=O)CC1` [YMU1], the IC50 was determined as 720 nM at hTMPK and 1800 nM at hCMPK.

Turning to `Nc1ccn([C@@H]2O[C@H](CO)[C@@H](O)[C@@H]2O)c(=O)n1` [ara-C, cytosine arabinoside], the “viability (0 = 100)” value with untransformed 32D cells [1] (AraC 0.25 μM, single replicates) is 80.5922 and 25.4877 and 20.7295; with untransformed 32D cells [1] (AraC 0.5 μM, single replicates) it was 32.0177 and 10.1455 and 8.811; in the data set with untransformed 32D cells [1] (AraC 1 μM, single replicates), 12.3749 and 4.297 and 2.7153; in the data set on untransformed 32D cells [1] (AraC 2 μM, single replicates), 4.929 and -0.8077 and -0.4748; in the data set with WT-Bcr-Abl-32D cells [2] (AraC 0.25 μM), 45.2109 and 73.8346 and 101.332; with WT-Bcr-Abl-32D cells [2] (AraC 0.5 μM), 24.4529 and 41.8769 and 43.1257. Further, the “viability (0 = 100)” value is 7.238 and 10.5227 and 12.1803 with WT-Bcr-Abl-32D cells [2] (AraC 1 μM); 1.535 and 1.964 and 2.059 in the data set on WT-Bcr-Abl-32D cells [2] (AraC 2 μM); 91.0147 and 59.6875 and 56.2982 in the data set on T315I-Bcr-Abl-32D cells [3] (T315I-Bcr-Abl, AraC 0.25 μM, single replicates); 23.443 and 24.5051 and 17.9316 with T315I-Bcr-Abl-32D cells [3] (T315I-Bcr-Abl, AraC 0.5 μM, single replicates); 4.479 and 5.149 and 3.231 with T315I-Bcr-Abl-32D cells [3] (T315I-Bcr-Abl, AraC 1 μM, single replicates); 0.8258 and 1.3128 and 0.8788 in the data set with T315I-Bcr-Abl-32D cells [3] (T315I-Bcr-Abl, AraC 2 μM, single replicates). In addition, the “sensitivity compared among WT-, T315I-Bcr-Abl-32D and untransformed 32D progenitor cells” value with untransformed 32D cells [1] is “similar”.
